From the NIST ThermoML archive (doi:10.1021/je800981d)
Several values for one entry are separate records, joined by “and”; a condition that tells them apart may be missing. Identical values can stand only once.

Assays:
[1] = Liquid
[2] = refractive index (Na D-line) (dimensionless); conditions: 101.33 kPa, Liquid, Standard Abbe refractometry
[3] = xn = mol fraction of the nth substance listed; conditions: 101 kPa, Liquid
[4] = refractive index (Na D-line) (dimensionless); xn = mol fraction of the nth substance listed; conditions: 298.15 K, 101 kPa, Liquid, Standard Abbe refractometry

CCOS(=O)(=O)[O-].CC[n+]1ccccc1 [1-ethylpyridinium ethyl sulfate]
[1]
Conditions | mass density, 101.33 kPa [kg/m3] | speed of sound, 101.33 kPa [m/s] | viscosity, 101 kPa [mPa·s] | viscosity, 101.33 kPa [mPa·s]
298.15 K | 1252 | 1711 | – | 126.3
303.15 K | 1248.7 | 1699 | – | 93
308.15 K | 1245.4 | 1687 | – | 72.1
313.15 K | 1242.1 | 1676 | – | 57.6
318.15 K | 1238.8 | 1664 | – | 46.4
323.15 K | 1235.6 | 1653 | – | 38.6
328.15 K | 1232.3 | 1641 | 38.6 | 32.53
333.15 K | 1229.1 | 1630 | – | 27.78
338.15 K | 1225.9 | 1619 | – | 23.9
343.15 K | 1222.7 | 1608 | – | 20.71

[2]
Conditions | refractive index
298.15 K | 1.50525 and 1.50252
303.15 K | 1.50394
308.15 K | 1.50258
313.15 K | 1.5012
318.15 K | 1.49976
323.15 K | 1.4985
328.15 K | 1.4972
333.15 K | 1.49587
338.15 K | 1.49454
343.15 K | 1.49309

CCOS(=O)(=O)[O-].CC[n+]1ccccc1 [1-ethylpyridinium ethyl sulfate] + CCCO
[3]
Conditions | mass density, 298.15 K [kg/m3] | mass density, 313.15 K [kg/m3] | mass density, 328.15 K [kg/m3] | speed of sound, 298.15 K [m/s] | speed of sound, 313.15 K [m/s] | speed of sound, 328.15 K [m/s] | viscosity, 298.15 K [mPa·s] | viscosity, 313.15 K [mPa·s] | viscosity, 328.15 K [mPa·s]
x2 = 0 | 1252 | 1242.1 | 1232.3 | 1711 | 1676 | 1641 | 126.3 | 57.6 | 38.6
x2 = 0.0814 | 1237.2 | 1227.4 | 1217.6 | 1689 | 1654 | 1619 | 95.2 | 48 | 32.49
x2 = 0.1994 | 1212.7 | 1202.7 | 1192.7 | 1649 | 1613 | 1578 | 62.7 | 34.23 | 23.31
x2 = 0.3084 | 1186.1 | 1176.1 | 1165.9 | 1608 | 1572 | 1537 | 43.6 | 25.21 | 17.27
x2 = 0.4035 | 1159 | 1148.5 | 1138.3 | 1565 | 1528 | 1493 | 30.03 | 18.31 | 12.21
x2 = 0.5077 | 1123.8 | 1113 | 1102.6 | 1516 | 1478 | 1440 | 20.12 | 12.91 | 8.898
x2 = 0.6013 | 1085.8 | 1074.8 | 1064.2 | 1466 | 1427 | 1388 | 13.68 | 9.161 | 6.523
x2 = 0.7016 | 1036.7 | 1025.2 | 1014.3 | 1409 | 1367 | 1327 | 8.84 | 6.131 | 4.494
x2 = 0.8004 | 976.9 | 965.3 | 954.1 | 1347 | 1304 | 1262 | 5.597 | 3.988 | 2.977
x2 = 0.9002 | 900.6 | 888.9 | 877.1 | 1279 | 1234 | 1189 | 3.483 | 2.507 | 1.874
x2 = 0.9521 | 852.4 | 840.3 | 828.1 | 1244 | 1195 | 1147 | 2.676 | 1.921 | 1.411

[4]
Conditions | refractive index
x2 = 0 | 1.50525
x2 = 0.0814 | 1.50137
x2 = 0.1994 | 1.49499
x2 = 0.3084 | 1.48804
x2 = 0.4035 | 1.48081
x2 = 0.5077 | 1.47142
x2 = 0.6013 | 1.46126
x2 = 0.7016 | 1.44802
x2 = 0.8004 | 1.43181
x2 = 0.9002 | 1.411
x2 = 0.9521 | 1.39773

CCOS(=O)(=O)[O-].CC[n+]1ccccc1 [1-ethylpyridinium ethyl sulfate] + CCO
[3]
Conditions | mass density, 298.15 K [kg/m3] | mass density, 313.15 K [kg/m3] | mass density, 328.15 K [kg/m3] | speed of sound, 298.15 K [m/s] | speed of sound, 313.15 K [m/s] | speed of sound, 328.15 K [m/s] | viscosity, 298.15 K [mPa·s] | viscosity, 313.15 K [mPa·s] | viscosity, 328.15 K [mPa·s]
x2 = 0 | 1252 | 1242.1 | 1232.3 | 1711 | 1676 | 1641 | 126.3 | 57.6 | 38.6
x2 = 0.0476 | 1245.3 | 1235.3 | 1225.3 | 1700 | 1665 | 1631 | 103.3 | 50.3 | 34.14
x2 = 0.1993 | 1220.8 | 1210.8 | 1200.7 | 1661 | 1625 | 1591 | 58.4 | 33.9 | 22.38
x2 = 0.2992 | 1201.2 | 1190.9 | 1180.7 | 1630 | 1593 | 1558 | 40.3 | 23.51 | 15.2
x2 = 0.5009 | 1147.2 | 1136.4 | 1125.9 | 1546 | 1508 | 1472 | 17.27 | 11.39 | 8.015
x2 = 0.6033 | 1109.2 | 1098.4 | 1087.7 | 1491 | 1453 | 1388 | 10.79 | 7.07 | 5.198
x2 = 0.7023 | 1062 | 1051 | 1039.9 | 1428 | 1388 | 1350 | 6.63 | 4.8 | 3.642
x2 = 0.8016 | 999.9 | 988.1 | 976.6 | 1349 | 1308 | 1267 | 3.947 | 2.943 | 2.287
x2 = 0.899 | 915.5 | 903.3 | 890.1 | 1258 | 1214 | 1170 | 2.244 | 1.717 | 1.344
x2 = 0.9476 | 860.1 | 847.5 | 834.1 | 1206 | 1160 | 1113 | 1.641 | 1.261 | 0.987

[4]
Conditions | refractive index
x2 = 0 | 1.50252
x2 = 0.0476 | 1.50313
x2 = 0.1993 | 1.49585
x2 = 0.2992 | 1.48987
x2 = 0.5009 | 1.47321
x2 = 0.6033 | 1.46152
x2 = 0.7023 | 1.44693
x2 = 0.8016 | 1.42734
x2 = 0.899 | 1.40078
x2 = 0.9476 | 1.38342

CCO [ethanol]
[1], 101 kPa
Conditions | mass density [kg/m3] | speed of sound [m/s] | viscosity [mPa·s]
298.15 K | 785.5 | 1146 | 1.082
313.15 K | 772 | 1093 | 0.827
328.15 K | 758.6 | 1043 | 0.641

Conditions | refractive index
[2], 298.15 K | 1.36023

CCO [ethanol] + CCOS(=O)(=O)[O-].CC[n+]1ccccc1
[3], x1 = 1
Conditions | mass density [kg/m3] | speed of sound [m/s] | viscosity [mPa·s]
298.15 K | 785.5 | 1146 | 1.082
313.15 K | 772 | 1093 | 0.827
328.15 K | 758.6 | 1043 | 0.641

Conditions | refractive index
[4], x1 = 1 | 1.36023

CCCO [propan-1-ol]
[1], 101 kPa
Conditions | mass density [kg/m3] | speed of sound [m/s] | viscosity [mPa·s]
298.15 K | 799.6 | 1207 | 2.017
313.15 K | 787.4 | 1155 | 1.43
328.15 K | 774.8 | 1105 | 1.041

Conditions | refractive index
[2], 298.15 K | 1.3831

CCCO [propan-1-ol] + CCOS(=O)(=O)[O-].CC[n+]1ccccc1
[3], x1 = 1
Conditions | mass density [kg/m3] | speed of sound [m/s] | viscosity [mPa·s]
298.15 K | 799.6 | 1207 | 2.017
313.15 K | 787.4 | 1155 | 1.43
328.15 K | 774.8 | 1105 | 1.041

Conditions | refractive index
[4], x1 = 1 | 1.3831
